Assays:
IL-1β = details: leucocytes isolated from patients within 24 h of the onset of direct ARDS; cited from earlier work
[1] = Solubility of CMT-3 in aqueous solutions (statement); format: physicochemical

NC(=O)C1=C(O)CC2CC3Cc4cccc(O)c4C(=O)C3=C(O)[C@]2(O)C1=O (some centres unmarked) [CMT-3, 6-demethyl-6-deoxy-4-de(dimethylamino)tetracycline]
IL-1β production in alveolar leucocytes (IL-1β): significantly suppressed | Solubility in aqueous solutions [1]: barely dissolved in aqueous solutions

Source: patent US20250177318A1, “CMT-3 FORMULATIONS AND METHODS OF USING THE SAME” (The Research Foundation for the State University of New York, priority 2022, published 2025)
